According to US8124587B2, “2-(aminomethyl)-5-chlorobenzylamide derivatives and their use as inhibitors of the clotting factor Xa” (The Medicines Company (Leipzig) GmbH, priority 2005, dated 2012):
Like-named read-outs stand apart in the source and are kept apart here.

Columns and labels:
Format in all cases: biochemical
Human plasmin = molecular target: T1, Human plasmin (Homo sapiens, UniProt P00747); assay: Enzyme kinetic determination of Ki with chromogenic substrate, plasmin; details: Tris buffer pH 8.0, 25° C., Chromozym PL
T1 construct: Human plasmin (CHROMOGENIX, Milano, Italy); purchased CHROMOGENIX, Milano, Italy
Description: (§1) The inhibitory effect of the inhibitors for factor Xa, thrombin and plasmin were estimated using specific synthetic chromogenic substrates. […] The inhibitor was dissolved in Tris buffer, the substrates (all Pentapharm Ltd., Basel, CH) in water. […] Three different substrate concentrations and five different inhibitor concentrations were measured in each case.
(§2) The following enzymes and substrates were used for the measurements:
Human plasmin (CHROMOGENIX, Milano, Italy)
Substrate: Tos-Gly-Pro-Lys-pNA (Chromozym PL),
concentration: 2, 1 and 0.67 mM; reaction time: 3 min

Thrombin (bovine) = molecular target: T2, Thrombin (bovine) (Bos taurus, UniProt P00735); assay: Enzyme kinetic determination of Ki with chromogenic substrate, thrombin
T2 construct: Thrombin (bovine)
Description: as §1, §2
Enzyme content: 2.5 IE/ml (in 0.9% NaCl with 1% HSA)
Substrate: CH3SO2-D-HHT-Gly-Arg-pNA (Pefachrome tPA),
concentration: 2, 1 and 0.5 mM; reaction time: 3 min

Human factor Xa = molecular target: T3, Human factor Xa (Homo sapiens, UniProt P00742); assay: Enzyme kinetic determination of Ki with chromogenic substrate, factor Xa; details: Tris buffer pH 8.0, 25° C., Pefachrome Xa, read-out: Ki (nM) FXa
T3 construct: Human factor Xa (Enzyme Research Lab., purchased from Haemochrom Diagnostica GmbH, Essen); purchased Enzyme Research Lab; (via Haemochrom Diagnostica GmbH, Essen)
Description: as §1, §2
Human factor Xa (Enzyme Research Lab., purchased from Haemochrom Diagnostica GmbH, Essen)
Enzyme content: 0.67 μg/ml
Substrate: CH3OCO-D-Cha-Gly-Arg-pNA (Pefachrome Xa),
concentration: 4, 2 and 1 mM; reaction time: 4 min

[1] = bovine thrombin, Tris buffer pH 8.0, 25° C., Pefachrome tPA, read-out: Ki (nM) Thrombin

T3 sequence (P00742 235-488 limits assumed): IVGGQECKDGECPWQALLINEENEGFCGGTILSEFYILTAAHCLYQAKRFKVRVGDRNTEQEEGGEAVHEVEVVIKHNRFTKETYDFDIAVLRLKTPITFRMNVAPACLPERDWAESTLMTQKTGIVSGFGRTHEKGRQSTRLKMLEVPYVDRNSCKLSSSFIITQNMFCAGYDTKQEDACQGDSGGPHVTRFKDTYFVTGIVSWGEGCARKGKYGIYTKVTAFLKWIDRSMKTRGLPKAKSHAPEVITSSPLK
T3 sequence (P00742 41-179 limits assumed): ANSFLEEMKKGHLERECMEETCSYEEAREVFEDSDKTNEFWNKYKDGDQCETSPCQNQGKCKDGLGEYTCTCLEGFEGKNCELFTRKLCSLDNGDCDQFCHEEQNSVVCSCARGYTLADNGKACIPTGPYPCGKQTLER
T1 sequence (P00747 581-810 limits assumed): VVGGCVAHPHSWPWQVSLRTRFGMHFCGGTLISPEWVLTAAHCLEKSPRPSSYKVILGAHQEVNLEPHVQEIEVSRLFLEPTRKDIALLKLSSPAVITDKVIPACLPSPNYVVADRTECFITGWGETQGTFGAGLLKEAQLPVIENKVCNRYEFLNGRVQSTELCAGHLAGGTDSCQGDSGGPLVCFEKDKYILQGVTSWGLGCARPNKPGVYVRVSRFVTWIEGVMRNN
T1 sequence (P00747 97-580 limits assumed): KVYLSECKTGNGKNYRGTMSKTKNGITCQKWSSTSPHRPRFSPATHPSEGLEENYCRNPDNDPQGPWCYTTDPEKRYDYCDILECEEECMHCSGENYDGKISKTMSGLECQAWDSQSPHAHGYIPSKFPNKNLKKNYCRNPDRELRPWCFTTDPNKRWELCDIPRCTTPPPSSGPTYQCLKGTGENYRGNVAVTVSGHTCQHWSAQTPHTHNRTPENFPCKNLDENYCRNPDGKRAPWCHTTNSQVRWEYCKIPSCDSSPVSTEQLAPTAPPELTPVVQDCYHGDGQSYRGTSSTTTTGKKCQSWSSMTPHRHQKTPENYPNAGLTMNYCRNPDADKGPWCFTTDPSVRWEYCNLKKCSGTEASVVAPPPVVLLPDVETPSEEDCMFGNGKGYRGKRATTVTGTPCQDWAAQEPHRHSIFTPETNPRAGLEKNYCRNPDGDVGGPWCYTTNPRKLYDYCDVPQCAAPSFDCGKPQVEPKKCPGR

| SMILES | Ki (Human plasmin) [nM] | Ki (Thrombin (bovine)) [nM] | Ki (Thrombin (bovine); [1]) [nM] | Ki (Human factor Xa) [nM] |
| --- | --- | --- | --- | --- |
| C[C@H](NC(=O)[C@@H](CCc1cccc[n+]1[O-])NS(=O)(=O)Cc1ccccc1)C(=O)NCc1cc(Cl)ccc1CN [Inhibitor 10] | 85000 | 170 | – | – |
| NCc1ccc(Cl)cc1CNC(=O)[C@H](CO)NC(=O)C(CCc1ccccn1)NS(=O)(=O)Cc1ccccc1 (stereo partly drawn) [Inhibitor 3] | 350000 | 260 | – | – |
| NCc1ccc(Cl)cc1CNC(=O)CNC(=O)C(CCc1ccccn1)NS(=O)(=O)Cc1ccc(CC(=O)O)cc1 (stereo not drawn) [Inhibitor 15] | > 1e+06 | – | 140 | 0.68 |
| CC(C)OC(=O)CS(=O)(=O)NC(CCc1cccc[n+]1[O-])C(=O)NCC(=O)NCc1cc(Cl)ccc1CN (stereo not drawn) [Inhibitor 28] | 305000 | 1600 | – | 7.6 |
| NCc1ccc(Cl)cc1CNC(=O)[C@H](CO)NC(=O)[C@@H](CCc1ccccn1)NS(=O)(=O)Cc1ccc(CC(=O)O)cc1 [Inhibitor 19] | 100000 | – | 210 | 0.78 |
| NCc1ccc(Cl)cc1CNC(=O)CNC(=O)C(CCc1cccc[n+]1[O-])NC(=O)CC(=O)O (stereo not drawn) [Inhibitor 32] | – | 140 | – | – |
| COC(=O)c1ccc(CS(=O)(=O)NC(CCc2cccc[n+]2[O-])C(=O)N[C@@H](CO)C(=O)NCc2cc(Cl)ccc2CN)cc1 (stereo partly drawn) [Inhibitor 24] | 160000 | – | 930 | 0.48 |
| CCCS(=O)(=O)NC(CCc1cccc[n+]1[O-])C(=O)NCC(=O)NCc1cc(Cl)ccc1CN (stereo not drawn) [Inhibitor 4] | 280000 | 2630 | – | – |
| NCc1ccc(Cl)cc1CNC(=O)[C@H](CO)NC(=O)[C@@H](CCc1cccc[n+]1[O-])NS(=O)(=O)Cc1ccc(CC(=O)O)cc1 [Inhibitor 17] | > 1e+06 | – | 540 | 0.18 |
| CCOC(=O)CN[C@H](CCc1ccccn1)C(=O)N1CCC[C@H]1C(=O)NCc1cc(Cl)ccc1CN [Inhibitor 34] | – | 3.8 | – | – |
| NCc1ccc(Cl)cc1CNC(=O)[C@H](CN)NC(=O)[C@@H](CCc1cccc[n+]1[O-])NS(=O)(=O)Cc1ccccc1 [Inhibitor 12] | 2300 | – | 750 | 0.54 |
| COC(=O)CC[C@H](NC(=O)C(CCc1cccc[n+]1[O-])NS(=O)(=O)Cc1ccccc1)C(=O)NCc1cc(Cl)ccc1CN (stereo partly drawn) [Inhibitor 5] | 130000 | – | 350 | 0.43 |
| NCc1ccc(Cl)cc1CNC(=O)[C@H](CCC(=O)O)NC(=O)C(CCc1cccc[n+]1[O-])NS(=O)(=O)Cc1ccccc1 (stereo partly drawn) [Inhibitor 6] | 400000 | 20500 | – | – |
| CC(C)OC(=O)CS(=O)(=O)NC(CCc1ccccn1)C(=O)NCC(=O)NCc1cc(Cl)ccc1CN (stereo not drawn) [Inhibitor 30] | 290000 | – | 66 | 2.1 |
| NCc1ccc(Cl)cc1CNC(=O)CNC(=O)C(CCc1cccc[n+]1[O-])NS(=O)(=O)Cc1ccc(C(=O)O)cc1 (stereo not drawn) [Inhibitor 21] | 130000 | – | 1300 | 4.1 |
| NCc1ccc(Cl)cc1CNC(=O)CNC(=O)C(CCc1cccc[n+]1[O-])NS(=O)(=O)Cc1ccc(CC(=O)O)cc1 (stereo not drawn) [Inhibitor 14] | > 1e+06 | 930 | – | – |
| NCc1ccc(Cl)cc1CNC(=O)[C@@H]1CCCN1C(=O)[C@@H](CCc1cccc[n+]1[O-])NS(=O)(=O)Cc1ccccc1 [Inhibitor 7] | 8470 | 0.56 | – | – |

| SMILES | Ki (Human plasmin) [nM] | Ki (Thrombin (bovine)) [nM] | Ki (Thrombin (bovine); [1]) [nM] | Ki (Human factor Xa) [nM] |
| --- | --- | --- | --- | --- |
| NCc1ccc(Cl)cc1CNC(=O)CNC(=O)[C@H](O)CCc1ccccc1 [Inhibitor 8] | 540000 | – | 1600 | 2200 |
| COC(=O)CC[C@H](NC(=O)[C@@H](CCc1cccc[n+]1[O-])NS(=O)(=O)Cc1ccccc1)C(=O)NCc1cc(Cl)ccc1CN [Inhibitor 11] | 78000 | – | 180 | 0.24 |
| NCc1ccc(Cl)cc1CNC(=O)[C@@H]1CCCN1C(=O)C(CCc1cccc[n+]1[O-])NC(=O)C(=O)O (stereo partly drawn) [Inhibitor 31] | 80000 | – | 43 | 0.88 |
| NCc1ccc(Cl)cc1CNC(=O)CNC(=O)C(CCc1cccc[n+]1[O-])NS(=O)(=O)Cc1ccc[n+]([O-])c1 (stereo not drawn) [Inhibitor 25] | > 1e+06 | – | 2500 | 1.4 |
| CCOC(=O)CN[C@H](CCc1cccc[n+]1[O-])C(=O)N1CCC[C@H]1C(=O)NCc1cc(Cl)ccc1CN [Inhibitor 33] | 240000 | – | – | 0.4 |
| NCc1ccc(Cl)cc1CNC(=O)CNC(=O)C(CCc1ccccn1)NS(=O)(=O)Cc1ccc(C(=O)O)cc1 (stereo not drawn) [Inhibitor 23] | 140000 | – | 330 | 11 |
| NCc1ccc(Cl)cc1CNC(=O)CNC(=O)C(CCc1cccc[n+]1[O-])NCC(=O)O (stereo not drawn) [Inhibitor 9] | > 1e+06 | 125000 | – | – |
| NCc1ccc(Cl)cc1CNC(=O)[C@@H]1CCCN1C(=O)[C@@H](CCc1cccc[n+]1[O-])NCC(=O)OC1CCCCC1 [Inhibitor 38] | – | – | – | 1.01 |
| NCc1ccc(Cl)cc1CNC(=O)CNC(=O)C(CCc1ccccn1)NS(=O)(=O)Cc1cccnc1 (stereo not drawn) [Inhibitor 26] | 210000 | – | 140 | 0.34 |
| NCc1ccc(Cl)cc1CNC(=O)[C@@H]1CCCN1C(=O)[C@@H](CCc1cccc[n+]1[O-])NCC(=O)O [Inhibitor 35] | 100000 | 17.2 | – | 0.4 |
| COC(=O)Cc1ccc(CS(=O)(=O)NC(CCc2ccccn2)C(=O)N[C@@H](CO)C(=O)NCc2cc(Cl)ccc2CN)cc1 (stereo partly drawn) [Inhibitor 18] | > 1e+06 | – | 430 | 0.67 |
| COC(=O)Cc1ccc(CS(=O)(=O)NC(CCc2cccc[n+]2[O-])C(=O)NCC(=O)NCc2cc(Cl)ccc2CN)cc1 (stereo not drawn) [Inhibitor 13] | 200000 | 1010 | – | – |
| NCc1ccc(Cl)cc1CNC(=O)CNC(=O)[C@@H](CCc1cccc[n+]1[O-])NS(=O)(=O)Cc1ccccc1 [Inhibitor 1] | 600000 | 170 | – | – |
| COC(=O)c1ccc(CS(=O)(=O)NC(CCc2ccccn2)C(=O)NCC(=O)NCc2cc(Cl)ccc2CN)cc1 (stereo not drawn) [Inhibitor 22] | 98000 | – | 100 | 1.05 |
| COC(=O)c1ccc(CS(=O)(=O)NC(CCc2cccc[n+]2[O-])C(=O)NCC(=O)NCc2cc(Cl)ccc2CN)cc1 (stereo not drawn) [Inhibitor 20] | 140000 | – | 360 | 0.3 |
| NCc1ccc(Cl)cc1CNC(=O)[C@@H]1CCCN1C(=O)[C@@H](CCc1cccc[n+]1[O-])NS(=O)(=O)CC(=O)O [Inhibitor 27] | 98000 | 22 | – | – |
| NCc1ccc(Cl)cc1CNC(=O)CNC(=O)C(CCc1cccc[n+]1[O-])NS(=O)(=O)CC(=O)O (stereo not drawn) [Inhibitor 29] | > 1e+06 | 8300 | – | – |
